The values below come from patent publication US20240002459A1, “Granulin Compositions and Uses Related Thereto” (Emory University, priority 2016, published 2024).

Where a SMILES comes first, the peptide text is derived from it. Where no end group is shown, it is not given here. [ ]: non-standard residue; d: D form. The star is where a group is joined. Nle = CCCC[C@H](N)C(=O)O; Cbz = O=C(OCc1ccccc1)*

Data set [1] relates to processing of PGRN into GRNs. Description: Protease inhibitor panel, PGRN/GRN levels by immunoblot. The format is cell-based, human. The conditions noted are these: HAP1 WT cells, 24 hrs. As to the method: (§1) Asterisks (*) denote endogenous, intermediate PGRN cleavage products.
Processing of PGRN into GRNs likely involves one or more lysosomal proteases. To narrow down which class of proteases may be responsible for intracellular PGRN metabolism, HAP1 WT cells were treated with a panel of protease inhibitors and measured PGRN/GRN levels by immunoblot. […] One potential candidate lysosomal cysteine protease is cathepsin L, which was reported to cleave mouse PGRN in vitro.
In general terms: A western blot detects proteins with antibodies after separation by electrophoresis.

Data set [2] has as its system processing of PGRN into GRNs. Description: Pan-lysosomal inhibitor treatment, PGRN/GRN levels by ELISA and immunoblot. The format is cell-based, human. The following applies: HAP1 WT cells, 24 hrs, CQ 50 μM, BafA1 50 nM, ConA 50 nM; for secreted PGRN: conditioned media ELISA; for GRN levels / intracellular PGRN: immunoblot. The method, then: HAP1 WT cells were treated for 24 hrs with the pan-lysosome inhibitors chloroquine (CQ; 50 μM), bafilomycin A1 (BafA1; 50 nM), or concanamycin A (ConA; 50 nM) and conditioned media was analyzed for secreted PGRN by ELISA.
as §1
Because rapid processing of endocytosed PGRN into GRNs was observed, inhibiting lysosome function could impair GRN production. To determine the effect of pharmacologic lysosome inhibition on GRN levels, HAP1 WT cells were treated with the pan-lysosomal inhibitors chloroquine, bafilomycin A1, or concanamycin A1 for 24 hours and monitored PGRN/GRN levels by immunoblot. These compounds act as lysosome alkalizing agents or inhibitors of the vacuolar-type H+-ATPase (V-ATPase), which is needed for proper lysosome acidification and function. Further, these compounds increase intracellular and secreted PGRN.
Background: An ELISA detects its analyte on a solid surface through an enzyme-linked reagent.

The test system of data set [3] is processing of PGRN into GRNs. Description: Cathepsin L inhibitor II treatment, PGRN/GRN levels by immunoblot. The format is cell-based, human. The following applies: HAP1 WT cells, increasing concentrations, 40 hrs.
Text: as §1

For data set [4] the following is noted: at 25° C.; cited from earlier work.
The test system of data set [5] is Grn KO MEF cells. Description: Rescue of cathepsin-D (CTSD) phenotype in Grn KO MEFs by exogenous protein. The following applies: PGRN 10 μg/mL or GRN-2 proteins 25 μg/mL, 120 hrs, immunoblot. The format is cell-based, mouse.
Data set [6] concerns PGRN KO mouse embryonic fibroblasts (MEFs). Description: Uptake of recombinant PGRN and generation of GRNs in PGRN KO MEFs. The conditions noted are these: 5 or 10 μg/mL, immunoblot. The format is cell-based. As to the method:
PGRN KO MEF cells were treated with recombinant human PGRN (5 or 10 μg/mL) or recombinant mouse PGRN (5 μg/mL) in the media for 24 hrs and lysates were analyzed for PGRN (R&D AF2420) and GRN (Sigma) by immunoblot.
Because this study focused on screening and validating human specific PGRN antibodies, antibodies to detect endogenous mouse GRNs have not been identifies. Nevertheless, to determine if mouse cells are able to process human PGRN into mature GRNs, primary PGRN KO mouse embryonic fibroblasts (MEFs) were treated with recombinant human or mouse PGRN for […]. PGRN/GRN levels were measured in the lysates by immunoblot. […] Next, experiments were performed to determine if human PGRN would be processed into GRNs in mouse brain. Somatic brain transgenesis (SBT) were performed by injecting rAAV2/1 encoding eGFP or human N-TAP PGRN into the cerebral ventricles of newborn (PO) PGRN KO mice. The SBT paradigm leads to transgene expression that is almost exclusively neuronal as assessed by predominant co-localization between eGFP or PGRN (V5) and the neuronal marker NeuN at 3 months of age.

The target of data set [7] is C-TAP PGRN (UniProt P28799).
In data set [8] the target is cathepsin L (Homo sapiens, UniProt P07711). Description: In vitro cleavage of PGRN by recombinant cathepsin L. The format is biochemical.
Data set [9] relates to HAP1 PGRN KO cells. Description: Uptake and processing of C-TAP or N-TAP PGRN into GRNs (immunoblot). The format is cell-based, human. The following applies: 5 μg/mL, 24 hrs, compared to N-TAP PGRN. As to the method:
HAP1 PGRN KO cells were treated with C-TAP PGRN or N-TAP PGRN (5 μg/mL) for 24 hrs and […] lysates were analyzed for PGRN and GRN by immunoblot.
PGRN levels have been linked to expression of several genes including SORT1, encoding the membrane receptor sortilin, and TMEM106B, encoding the transmembrane protein 106B (TMEM106B). Thus, altered expression of these proteins could affect the production of intracellular GRNs as well. To address this, experiments were performed to determine if expression of sortilin, which facilitates endocytosis and trafficking of PGRN to the lysosome, influences GRN levels. PGRN KO cells were treated with PGRN tagged at either the C-terminus (C-TAP), which disrupts sortilin binding or the N-terminus (N-TAP), which preserves sortilin binding, and measured intracellular PGRN and GRN by immunoblot. […] Next, HAP1 SORT1 KO cells were generated using CRISPR/Cas9 technology. […] Thus, disruption of the SORT1/PGRN axis alters intracellular PGRN trafficking and leads to decreased GRN production.

Chain of cathepsin L (P07711 114-333, species assumed): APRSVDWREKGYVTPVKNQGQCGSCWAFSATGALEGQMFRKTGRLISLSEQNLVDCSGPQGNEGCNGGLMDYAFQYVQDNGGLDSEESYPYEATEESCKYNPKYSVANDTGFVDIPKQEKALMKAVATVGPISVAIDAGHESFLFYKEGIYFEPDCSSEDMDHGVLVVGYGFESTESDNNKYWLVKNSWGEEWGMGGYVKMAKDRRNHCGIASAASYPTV

`CCCC[C@@H](C=O)NC(=O)[C@H](CC(C)C)NC(=O)[C@H](CC(C)C)NC(C)=O` [ALLN] (Ac-Leu-Leu-[Nle]-aldehyde): in data set [1], the “GRN levels compared to vehicle treated control” value is “reduced GRN levels”.

`CC(NC(=O)[C@H](Cc1ccccc1)NC(=O)OCc1ccccc1)C(=O)CF` (stereo partly drawn) [Z-FA-fmk]: the “GRN levels compared to vehicle treated control” value in data set [1] is recorded as “reduced GRN levels”.

In the case of `CO/C1=C\C(C)=C\[C@@H](C)[C@@H](O)[C@@H](C)C/C(C)=C/C=C/[C@H](OC)[C@@H]([C@@H](C)[C@@H](O)[C@H](C)[C@@]2(O)C[C@@H](O)[C@H](C)[C@@H](C(C)C)O2)OC1=O` [bafilomycin A1], in data set [2], the “secreted PGRN” value is “significantly increased”, the GRN levels result is reported as “significantly decreased” and the “intracellular PGRN” value is “significantly increased”.

As for `O=C[C@H](Cc1ccc(O)cc1)NC(=O)[C@H](Cc1ccccc1)NC(=O)OCc1ccccc1` [cathepsin L inhibitor II, Z-FY-CHO] (Cbz-Phe-Tyr-aldehyde), in data set [3], the “endogenous PGRN” value was “modestly increased” and the “production of GRN” value is “significantly decreasing”.

Consider `CCN(CC)CCCC(C)Nc1ccnc2cc(Cl)ccc12` (stereo not drawn) [chloroquine], for which, in [2], the “secreted PGRN” value is “significantly increased”, the GRN levels entry was “significantly decreased” and the “intracellular PGRN” value was “significantly increased”.

As for `C/C=C/[C@H]1O[C@@](O)([C@@H](C)[C@H](O)[C@H](C)[C@H]2OC(=O)/C(OC)=C/C(C)=C/[C@@H](C)[C@@H](O)[C@@H](CC)[C@@H](O)[C@H](C)C/C(C)=C/C=C/[C@@H]2OC)C[C@@H](O[C@H]2C[C@@H](O)[C@H](OC(N)=O)[C@@H](C)O2)[C@@H]1C` [concanamycin A1, concanamycin A], in data set [2], the “secreted PGRN” value is on record as “significantly increased”, the GRN levels result is “significantly decreased” and the “intracellular PGRN” value is “significantly increased”.

Turning to `CC(=O)N[C@@H](CC(C)C)C(=O)N[C@@H](CC(C)C)C(=O)N[C@H](C=O)CCCNC(=N)N` [leupeptin], the “GRN levels compared to vehicle treated control” value in data set [1] is “reduced GRN levels”.

Turning to `CCCCCCCC` [octane], in data set [4], the “percent solubility in water by weight” value is given as 0.63×10^−4 % w/w.

Take “GRN-2: recombinant human granulin-2 protein, SEQ ID NO: 21, with twin Strep-tag (AIQCPDSQFECPDFSTCCVMVDGSWGCCPMPQASCCEDRVHCCPHGAFCDLVHTRCIT; cysteine pairing not given here; also: twin Strep-tag (position not given here))”: the “CTSD phenotype (total mature CTSD levels)” value in data set [5] is “rescues the CTSD phenotype”.

Regarding “N-TAP PGRN: full-length human PGRN with twin Strep tag and V5 epitope after the signal sequence; preserves sortilin binding”, in [6], the “endocytosis of PGRN and generation of mature human GRNs” value (shortened to “endocytosis … of mature human GRNs”) is given as “equally well”.

For recombinant cathepsin L, in [7], the “in vitro cleavage of PGRN (immunoblot)” value was “Incubation of cathepsin L and recombinant human PGRN lead to the time-dependent decrease of full-length PGRN and a corresponding increase of GRN protein”.

Turning to “recombinant human PGRN: recombinant full-length human progranulin protein (C-TAP PGRN in the cathepsin L cleavage)”, in data set [6], the “endocytosis … of mature human GRNs” value is listed as “efficiently endocytosed”. Also, the “GRNs generated by in vitro cleavage with cathepsin L” value in [8] (2 hrs, immunoblot) is “generated multiple, mature GRNs including GRN-2, -3, and -4”. Also, the “full-length PGRN on incubation with cathepsin L” value in data set [8] (with corresponding increase of GRN protein) is listed as “time-dependent decrease”. Moreover, in [5], the “CTSD phenotype (total mature CTSD levels)” value is “can be rescued”.

B1: C-TAP PGRN: full-length human PGRN with C-terminal twin-Strep tag followed by FLAG epitope; disrupts sortilin binding (protein)
chain: TRCPDGQFCPVACCLDPGGASYSCCRPLLDKWPTTLSRHLGGPCQVDAHCSAGHSCIFTVSGTSSCCPFPEAVACGDGHHCCPRGFHCSADGRSCFQRSGNNSVGAIQCPDSQFECPDFSTCCVMVDGSWGCCPMPQASCCEDRVHCCPHGAFCDLVHTRCITPTGTHPLAKKLPAQRTNRAVALSSSVMCPDARSRCPDGSTCCELPSGKYGCCPMPNATCCSDHLHCCPQDTVCDLIQSKCLSKENATTDLLTKLPAHTVGDVKCDMEVSCPDGYTCCRLQSGAWGCCPFTQAVCCEDHIHCCPAGFTCDTQKGTCEQGPHQVPWMEKAPAHLSLPDPQALKRDVPCDNVSSCPSSDTCCQLTSGEWGCCPIPEAVCCSDHQHCCPQGYTCVAEGQCQRGSEIVAGLEKMPARRASLSHPRDIGCDQHTSCPVGQTCCPSLGGSWACCQLPHAVCCEDRQHCCPAGYTCNVKARSCEKEVVSAQPATFLARSPHVGVKDVECGEGHFCHDNQTCCRDNRQGWACCPYRQGVCCADRRHCCPAGFRCAARGTKCLRREAPRWDAPLRDPALRQLL
modifications: left off: small tags and cut ends
As to B1, the “endocytosis … of mature human GRNs” value in data set [6] was “equally well”. Besides, the “endocytosis and processing into GRNs” value in [9] is “not efficiently endocytosed and processed into GRNs”.
